Measurements taken from patent US20170064957A1, “ACTIVE COMPOUND COMBINATIONS HAVING IN[…]” (BAYER CROPSCIENCE AKTIENGESELLSCHAFT, priority 2014, published 2017).

Key:
Format in all cases: in vivo
[1] = tested on: two spotted spidermite (Tetranychus urticae); assay: Tetranychus urticae - spray test OP-resistant; settings: French bean leaf disks
Excerpt: (§1) The expected activity for a given combination of two active compounds can be calculated according to S. R. Colby, Weeds 15 (1967), 20-22 as follows: • If • X is the kill rate, expressed in % of the untreated control, when active compound A is applied at an application rate of m g/ha or at a concentration of m ppm, • Y is the kill rate, expressed in % of the untreated control, when active compound B is applied at an application rate of n g/ha or at a concentration of n ppm and • E is the kill rate, expressed in % of the untreated control, when active compounds A and B is applied at application rates of m and n g/ha or at a concentration of m and n ppm, • then
Tetranvchus Urticae—Spray Test OP-Resistant
(§2) To produce a suitable preparation of active compound, 1 part by weight of active compound is mixed with the stated amount of solvents and is diluted with water, containing an emulsifier concentration of 1000 ppm, to the desired concentration. To produce a suitable preparation of a spore suspension the spores are diluted with emulsifier containing water to the desired concentration. Further test concentrations are prepared by dilution with emulsifier containing water.
French bean (Phaseolus vulgaris) leaf disks which are heavily infested with all stages of the two spotted spidermite (Tetranychus urticae), are sprayed with a preparation of the active ingredient of the desired concentration.
After the specified period of time, mortality in % is determined. 100% means all spider mites have been killed and 0% means none of the spider mites have been killed. The mortality values determined thus are recalculated using the Colby-formula (see sheet 1).

[2] = tested on: caterpillars of the fall army worm (Spodoptera frugiperda); assay: Spodoptera frugiperda - spray test; settings: 0.1 ppm, cotton leaves
Excerpt: as §1
Spodoptera frugiperda—Spray Test
(§3) Solvent: 7 parts by weight of dimethylformamide Emulsifier: alkylaryl polyglycol ether
(§4) To produce a suitable preparation of active compound, 1 part by weight of active compound is mixed with the stated amount of solvent and is diluted with water, containing an emulsifier concentration of 1000 ppm, to the desired concentration. Further test concentrations are prepared by dilution with emulsifier containing water. Ammonium salt and/or penetration enhancer in a dosage of 1000 ppm are added if necessary.
Cotton leaves (Gossypium hirsutum) are treated by being sprayed with the preparation of the active compound of the desired concentration and are infested with caterpillars of the fall army worm (Spodoptera frugiperda).
After the specified period of time mortality in % is determined. 100% means all the caterpillars have been killed and 0% means none of the caterpillars have been killed. The mortality values determined thus are recalculated using the Colby-formula (see sheet 1).

[3] = tested on: larvae of the cotton boll worm (Heliothis armigera); assay: Heliothis armigera - spray test; settings: cotton plants
Excerpt: as §1
Heliothis armigera—Spray Test
as §3
as §4, with “added to the desired concentration” for “added”
Cotton plants (Gossypium hirsutum) are treated by being sprayed with the preparation of the active compound of the desired concentration and are infested with larvae of the cotton boll worm (Heliothis armigera).
After the specified period of time, the mortality in % is determined. 100% means all caterpillars have been killed; 0% means none of the caterpillars have been killed. The mortality values determined thus are recalculated using the Colby-formula (see sheet 1).

[4] = tested on: mustard beetle larvae (Phaedon cochleariae); assay: Phaedon cochleariae - spray test; settings: Chinese cabbage leaf disks
Excerpt: as §1
Phaedon cochleariae—Spray Test
as §2
Chinese cabbage (Brassica pekinensis) leaf disks are sprayed with a preparation of the active ingredient of the desired concentration. Once dry, the leaf disks are infested with mustard beetle larvae (Phaedon cochleariae).
After the specified period of time, mortality in % is determined. 100% means all beetle larvae have been killed and 0% means none of the beetle larvae have been killed. The mortality values determined thus are recalculated using the Colby-formula (see sheet 1).

Structure (SMILES): Cc1cc(C(F)(C(F)(F)F)C(F)(F)F)ccc1NC(=O)c1cccc(I)c1C(=O)NC(C)(C)CS(C)(=O)=O [Flubendiamide]
- Efficacy in % after 2d ([1]; 0.8 g ai/ha): 0%
- Efficacy in % after 6d ([1]; 0.8 g ai/ha, 6 d): 0%
- Efficacy in % after 2d ([1]; 4 g ai/ha): 0%
- Efficacy in % after 1d ([2]; 1 d): 0%
- Efficacy in % after 2d ([2]; 2 d): 0%
- Efficacy in % after 3d ([2]; 3 d): 0%

Structure (SMILES): Cc1cc(C(F)(C(F)(F)F)C(F)(F)F)ccc1NC(=O)c1cccc(Cl)c1C(=O)NC(C)(C)C#N [Compound of formula (II-6)]
- Efficacy in % after 2d ([3]; 0.1 ppm): 20%
- Efficacy in % after 2d ([3]; 0.2 ppm): 50%
- Efficacy in % after 1d ([3]; 0.4 ppm, 1 d): 30%
- Efficacy in % after 2d ([3]; 0.4 ppm): 60%

Structure (SMILES): CNC(=O)c1cc(C#N)cc(C)c1NC(=O)c1cc(Br)nn1-c1ncccc1Cl [Cyantraniliprole]
- Efficacy in % after 6d ([3]; 0.15 ppm, 6 d): 50%

Structure (SMILES): CNC(=O)c1cc(C#N)cc(C)c1NC(=O)c1cc(Cn2nnc(C(F)(F)F)n2)nn1-c1ncccc1Cl [(II-2), 1-(3-chloropyridin-2-yl)-N-[4-cyano-2-methyl-6-(methylcarbamoyl)phenyl]-3-{[5-(trifluoromethyl)-2H-tetrazol-2-yl]methyl}-1H-pyrazole-5-carboxamide]
- Efficacy in % after 6d ([4]; 0.0064 g ai/ha): 0%
- Efficacy in % after 6d ([4]; 0.032 g ai/ha): 33%

Structure (SMILES): CNC(=O)c1cc(Cl)cc(C)c1NC(=O)c1cc(Br)nn1-c1ncccc1Cl [Chlorantraniliprole]
- Efficacy in % after 6d ([4]; 0.16 g ai/ha): 0%
